Measurements taken from US8557840B2, “Herbicidal compounds” (Syngenta Limited, priority 2008, dated 2013).

Legend:
Assay in all cases: Herbicidal action, post-emergence, pots in glasshouse (Example B2)
Type in all cases: in vivo
Settings in all cases: 1000 g/ha, evaluated after 13 days, 10=total damage to plant, 0=no damage to plant
[1] = test system: Amaranthus retroflexus
Method: (§1) Seeds of a variety of test species were sown in standard soil in pots. After 8 days cultivation (post-emergence) under controlled conditions in a glasshouse (at 24/16° C., day/night; 14 hours light; 65% humidity), the plants were sprayed with an aqueous spray solution derived from the formulation of the technical active ingredient in acetone/water (50:50) solution containing 0.5% Tween 20 (polyoxyethelyene sorbitan monolaurate, CAS RN 9005-64-5). The test plants were then grown in a glasshouse under controlled conditions in a glasshouse (at 24/16° C., day/night; 14 hours light; 65% humidity) and watered twice daily. After 13 days, the test was evaluated (10=total damage to plant; 0=no damage to plant).

[2] = test system: Echinochloa crus-galli
Method: as §1

[3] = test system: Ipomea hederaceae
Method: as §1

[4] = test system: Setaria faberi
Method: as §1

[5] = test system: Solanum nigrum
Method: as §1

SMILES	AMARE damage to plant [1]	ECHCG damage to plant [2]	IPOHE damage to plant [3]	SETFA damage to plant [4]	SOLNI damage to plant [5]
Cn1c(=O)c(-c2c(F)ccc(F)c2Cl)c(O)c2ccc(Cl)nc21 [D22]	2	1	6	0	4
CC(C)C(=O)Oc1c(-c2c(F)ccc(F)c2Cl)c(=O)n(C)c2cnccc12 [C2]	3	0	5	0	2
O=c1[nH]c2ncccc2c(O)c1-c1c(F)ccc(Br)c1Cl [D33]	1	0	7	0	3
CCn1c(=O)c(-c2c(F)ccc(Cl)c2Cl)c(O)c2c(OC)ccnc21 [D26]	6	4	6	4	6
CC(C)(C)C(=O)Oc1c(-c2c(F)ccc(F)c2Cl)c(=O)n(CC(F)F)c2ncccc12 [D10, 2,2-dimethyl-propionic acid 3-(2-chloro-3,6-difluoro-phenyl)-1-(2,2-difluoro-ethyl)-2-oxo-1,2-dihydro-[1,8]naphthyridin-4-yl ester]	7	0	6	0	7
O=c1[nH]c2nc(Cl)ccc2c(O)c1-c1c(F)ccc(F)c1Cl [D14]	4	4	0	0	0
O=c1c(-c2c(F)ccc(F)c2Cl)c(O)c2ccc(Cl)nc2n1CC(F)F [D17]	6	0	5	0	6
Cn1c(=O)c(-c2c(F)ccc(F)c2Cl)c(O)c2ccncc21 [C1]	0	0	2	0	0
CC(C)(C)C(=O)Oc1c(-c2c(F)ccc(F)c2Cl)c(=O)[nH]c2nc(C(F)(F)F)ccc12 [D31]	0	0	1	0	0
CC(C)C(=O)Oc1c(-c2c(F)ccc(F)c2Cl)c(=O)n(CC(F)F)c2ncncc12 [E3]	7	0	1	0	5
CC(C)C(=O)Oc1c(-c2c(F)ccc(Br)c2Cl)c(=O)n(CC(F)F)c2ncccc12 [D23, isobutyric acid 3-(3-bromo-2-chloro-6-fluoro-phenyl)-1-(2,2-difluoro-ethyl)-2-oxo-1,2-dihydro-[1,8]naphthyridin-4-yl ester]	4	1	4	0	9
Cc1cc(C)c(-c2c(O)c3ncnnc3[nH]c2=O)c(C)c1 [E12]	5	10	3	10	1
Cc1cc(C)c(-c2c(O)c3cccnc3n(C)c2=O)c(C)c1 [D24]	0	0	1	0	1
Cc1cc2c(c(Cl)n1)c(O)c(-c1c(F)ccc(F)c1Cl)c(=O)n2C [B4]	0	0	2	0	2
Cn1c(=O)c(-c2c(F)ccc(F)c2Cl)c(OC(=O)C(C)(C)C)c2ccc(C(F)(F)F)nc21 [D30]	0	0	2	0	2
